Measured values published in article PMC11345841, “Exploring 2-Sulfonylpyrimidine Warheads as Acrylamide Surrogates for Targeted Covalent Inhibition: A BTK Story” (Journal of Medicinal Chemistry, 2024).
Like-named read-outs stand apart in the source and are kept apart here.

What was measured:
TYRO3 = biological target: T1, TYRO3 (Homo sapiens, UniProt Q06418); test: KINOMEscan ScanTK; format: binding
T1 construct: purchased Eurofins DiscoverX KINOMEscan (scanTK)
T1 sequence (Q06418 41-890): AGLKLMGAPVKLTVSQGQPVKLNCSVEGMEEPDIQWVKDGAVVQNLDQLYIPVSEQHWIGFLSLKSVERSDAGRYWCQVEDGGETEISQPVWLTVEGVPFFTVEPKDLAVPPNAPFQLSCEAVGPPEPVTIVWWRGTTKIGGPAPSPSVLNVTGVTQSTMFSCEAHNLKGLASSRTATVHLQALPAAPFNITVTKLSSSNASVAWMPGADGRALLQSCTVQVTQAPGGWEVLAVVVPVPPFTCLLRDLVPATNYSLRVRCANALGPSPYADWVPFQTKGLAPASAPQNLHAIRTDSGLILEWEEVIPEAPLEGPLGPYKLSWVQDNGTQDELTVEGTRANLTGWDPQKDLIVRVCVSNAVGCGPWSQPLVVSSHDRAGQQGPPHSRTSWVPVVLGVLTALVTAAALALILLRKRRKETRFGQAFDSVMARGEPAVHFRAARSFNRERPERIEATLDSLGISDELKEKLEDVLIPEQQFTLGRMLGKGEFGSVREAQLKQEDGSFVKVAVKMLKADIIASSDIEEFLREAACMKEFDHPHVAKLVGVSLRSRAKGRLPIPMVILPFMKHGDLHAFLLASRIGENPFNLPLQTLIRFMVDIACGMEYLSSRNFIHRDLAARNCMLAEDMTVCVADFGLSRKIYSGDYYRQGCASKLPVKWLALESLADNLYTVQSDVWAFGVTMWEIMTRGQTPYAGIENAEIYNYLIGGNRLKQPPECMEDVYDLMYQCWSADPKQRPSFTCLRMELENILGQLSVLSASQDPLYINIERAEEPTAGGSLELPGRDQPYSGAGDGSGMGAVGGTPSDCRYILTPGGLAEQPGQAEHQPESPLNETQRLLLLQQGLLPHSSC

FLT3(R834Q) = biological target: T2, FLT3(R834Q) (Homo sapiens, UniProt P36888, R834Q); test: KINOMEscan ScanTK; format: binding
T2 construct: purchased Eurofins DiscoverX KINOMEscan (scanTK)
T2 sequence (P36888 27-993 R834Q): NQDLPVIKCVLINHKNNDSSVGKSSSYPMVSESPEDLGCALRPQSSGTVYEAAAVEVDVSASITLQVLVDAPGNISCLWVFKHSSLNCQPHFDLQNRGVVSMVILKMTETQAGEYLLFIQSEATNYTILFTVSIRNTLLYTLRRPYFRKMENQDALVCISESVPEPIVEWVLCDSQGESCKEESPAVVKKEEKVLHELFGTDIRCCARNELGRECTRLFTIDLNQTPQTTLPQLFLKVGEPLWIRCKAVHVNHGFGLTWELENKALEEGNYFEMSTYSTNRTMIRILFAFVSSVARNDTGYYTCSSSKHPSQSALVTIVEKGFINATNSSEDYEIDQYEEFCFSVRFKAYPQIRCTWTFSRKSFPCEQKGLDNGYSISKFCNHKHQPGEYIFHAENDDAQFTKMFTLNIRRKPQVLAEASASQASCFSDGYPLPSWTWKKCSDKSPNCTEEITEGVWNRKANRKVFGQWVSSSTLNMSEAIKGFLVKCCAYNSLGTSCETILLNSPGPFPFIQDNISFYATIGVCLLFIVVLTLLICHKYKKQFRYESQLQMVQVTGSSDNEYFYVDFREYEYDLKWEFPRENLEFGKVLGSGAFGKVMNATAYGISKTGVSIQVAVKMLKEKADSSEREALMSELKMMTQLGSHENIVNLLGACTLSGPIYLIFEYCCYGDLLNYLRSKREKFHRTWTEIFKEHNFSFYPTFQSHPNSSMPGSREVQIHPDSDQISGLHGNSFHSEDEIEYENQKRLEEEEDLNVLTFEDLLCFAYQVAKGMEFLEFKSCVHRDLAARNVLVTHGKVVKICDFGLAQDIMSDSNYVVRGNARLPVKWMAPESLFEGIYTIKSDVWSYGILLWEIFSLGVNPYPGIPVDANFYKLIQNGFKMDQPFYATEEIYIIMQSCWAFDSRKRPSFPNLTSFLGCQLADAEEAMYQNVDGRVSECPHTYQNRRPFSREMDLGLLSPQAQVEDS

CSF1R = biological target: T3, CSF1R (Homo sapiens, UniProt P07333); test: KINOMEscan ScanTK; format: binding
T3 construct: purchased Eurofins DiscoverX KINOMEscan (scanTK)
T3 sequence (P07333 20-972): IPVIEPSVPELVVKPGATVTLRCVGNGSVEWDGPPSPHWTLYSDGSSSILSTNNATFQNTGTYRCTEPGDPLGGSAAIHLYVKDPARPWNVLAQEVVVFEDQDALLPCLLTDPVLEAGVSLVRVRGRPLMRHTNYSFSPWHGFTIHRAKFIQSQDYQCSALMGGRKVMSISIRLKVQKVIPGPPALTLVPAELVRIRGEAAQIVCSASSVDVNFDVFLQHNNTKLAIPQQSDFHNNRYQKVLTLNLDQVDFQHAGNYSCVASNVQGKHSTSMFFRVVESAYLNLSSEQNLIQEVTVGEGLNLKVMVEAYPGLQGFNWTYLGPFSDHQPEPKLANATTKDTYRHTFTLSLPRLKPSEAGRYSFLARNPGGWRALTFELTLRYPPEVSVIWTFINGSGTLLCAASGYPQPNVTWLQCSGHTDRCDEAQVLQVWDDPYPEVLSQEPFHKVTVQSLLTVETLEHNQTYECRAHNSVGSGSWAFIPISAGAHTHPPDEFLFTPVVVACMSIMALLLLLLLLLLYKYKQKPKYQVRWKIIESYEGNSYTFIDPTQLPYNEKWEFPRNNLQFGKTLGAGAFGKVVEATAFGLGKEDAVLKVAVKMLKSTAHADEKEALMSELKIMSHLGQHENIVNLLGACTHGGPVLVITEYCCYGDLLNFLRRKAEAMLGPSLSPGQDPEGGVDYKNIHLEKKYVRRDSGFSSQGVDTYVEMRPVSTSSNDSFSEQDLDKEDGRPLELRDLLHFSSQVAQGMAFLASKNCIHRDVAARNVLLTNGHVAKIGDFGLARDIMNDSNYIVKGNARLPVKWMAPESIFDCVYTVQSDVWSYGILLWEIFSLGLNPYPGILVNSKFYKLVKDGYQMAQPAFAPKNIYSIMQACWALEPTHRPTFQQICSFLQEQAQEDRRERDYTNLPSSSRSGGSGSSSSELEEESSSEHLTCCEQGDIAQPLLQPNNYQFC

RET(V804L) = biological target: T4, RET(V804L) (Homo sapiens, UniProt P07949, V804L); test: KINOMEscan ScanTK; format: binding
T4 construct: purchased Eurofins DiscoverX KINOMEscan (scanTK)
T4 sequence (P07949 29-1114 V804L): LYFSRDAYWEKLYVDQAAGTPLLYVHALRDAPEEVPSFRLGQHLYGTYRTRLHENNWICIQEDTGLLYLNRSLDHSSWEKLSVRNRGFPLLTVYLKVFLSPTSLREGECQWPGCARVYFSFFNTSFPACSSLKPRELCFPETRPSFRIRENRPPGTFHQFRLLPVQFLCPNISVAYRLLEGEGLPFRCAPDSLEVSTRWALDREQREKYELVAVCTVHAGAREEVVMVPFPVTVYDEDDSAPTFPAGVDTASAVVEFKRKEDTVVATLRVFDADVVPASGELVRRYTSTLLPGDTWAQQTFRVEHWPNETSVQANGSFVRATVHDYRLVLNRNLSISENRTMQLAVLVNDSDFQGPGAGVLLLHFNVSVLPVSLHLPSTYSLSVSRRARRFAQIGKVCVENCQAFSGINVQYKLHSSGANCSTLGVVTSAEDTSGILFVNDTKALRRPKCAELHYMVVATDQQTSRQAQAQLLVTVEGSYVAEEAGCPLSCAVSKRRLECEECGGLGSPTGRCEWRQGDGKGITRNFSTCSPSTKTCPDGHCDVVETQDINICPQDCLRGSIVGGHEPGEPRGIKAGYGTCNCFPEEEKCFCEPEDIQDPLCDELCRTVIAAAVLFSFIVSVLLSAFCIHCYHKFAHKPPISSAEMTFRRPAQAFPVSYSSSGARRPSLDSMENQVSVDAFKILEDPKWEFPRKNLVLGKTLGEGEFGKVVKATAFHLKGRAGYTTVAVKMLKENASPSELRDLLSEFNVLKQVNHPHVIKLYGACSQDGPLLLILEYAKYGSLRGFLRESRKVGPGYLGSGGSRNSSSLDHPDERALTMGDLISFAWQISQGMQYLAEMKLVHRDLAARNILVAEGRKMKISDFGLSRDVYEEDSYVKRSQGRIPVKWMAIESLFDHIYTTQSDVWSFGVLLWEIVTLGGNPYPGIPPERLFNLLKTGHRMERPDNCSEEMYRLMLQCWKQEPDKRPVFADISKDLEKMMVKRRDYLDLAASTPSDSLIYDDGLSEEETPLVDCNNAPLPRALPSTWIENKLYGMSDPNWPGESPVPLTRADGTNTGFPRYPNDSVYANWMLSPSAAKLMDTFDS

ITK, full length = biological target: T5, ITK, full length (Homo sapiens, UniProt Q08881); test: PhosphoSens enzymatic IC50 (AssayQuant)
T5 sequence (Q08881 1-620): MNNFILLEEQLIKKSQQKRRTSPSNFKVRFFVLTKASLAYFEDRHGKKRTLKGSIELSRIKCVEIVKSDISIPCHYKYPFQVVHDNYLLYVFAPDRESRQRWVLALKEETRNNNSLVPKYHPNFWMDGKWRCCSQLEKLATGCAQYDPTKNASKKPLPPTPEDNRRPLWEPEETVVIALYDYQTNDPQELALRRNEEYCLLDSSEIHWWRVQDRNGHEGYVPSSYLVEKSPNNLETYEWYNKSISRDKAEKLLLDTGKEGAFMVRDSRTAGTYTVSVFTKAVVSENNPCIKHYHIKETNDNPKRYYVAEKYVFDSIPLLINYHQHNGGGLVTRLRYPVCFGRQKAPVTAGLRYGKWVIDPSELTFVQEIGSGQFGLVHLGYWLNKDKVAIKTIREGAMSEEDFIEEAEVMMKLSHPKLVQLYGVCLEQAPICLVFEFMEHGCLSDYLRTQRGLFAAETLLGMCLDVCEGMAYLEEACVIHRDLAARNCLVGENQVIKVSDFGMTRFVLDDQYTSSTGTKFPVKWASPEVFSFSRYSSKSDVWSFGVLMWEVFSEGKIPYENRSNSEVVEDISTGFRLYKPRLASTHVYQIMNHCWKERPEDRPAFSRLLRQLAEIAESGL
Excerpt: Biochemical enzymatic IC50 data were generated by AssayQuant Technologies (Marlborough, MA) using the PhosphoSens Platform. […] Reaction rate versus log [inhibitor concentration] data were fitted to the four-parameter logistic equation [drawing 1]

[1] = biological target: T6, ABL1(M351T)-phosphorylated (Homo sapiens, UniProt P00519, M351T); test: KINOMEscan ScanTK; format: binding
T6 construct: purchased Eurofins DiscoverX KINOMEscan (scanTK)

BTK, full length (2–659) = BTK, full length (2–659) (Homo sapiens, UniProt Q06187); test: Kinact/Ki determination, PhosphoSens progress curve analysis; format: biochemical
BTK, full length (2–659), sequence (Q06187 2-659): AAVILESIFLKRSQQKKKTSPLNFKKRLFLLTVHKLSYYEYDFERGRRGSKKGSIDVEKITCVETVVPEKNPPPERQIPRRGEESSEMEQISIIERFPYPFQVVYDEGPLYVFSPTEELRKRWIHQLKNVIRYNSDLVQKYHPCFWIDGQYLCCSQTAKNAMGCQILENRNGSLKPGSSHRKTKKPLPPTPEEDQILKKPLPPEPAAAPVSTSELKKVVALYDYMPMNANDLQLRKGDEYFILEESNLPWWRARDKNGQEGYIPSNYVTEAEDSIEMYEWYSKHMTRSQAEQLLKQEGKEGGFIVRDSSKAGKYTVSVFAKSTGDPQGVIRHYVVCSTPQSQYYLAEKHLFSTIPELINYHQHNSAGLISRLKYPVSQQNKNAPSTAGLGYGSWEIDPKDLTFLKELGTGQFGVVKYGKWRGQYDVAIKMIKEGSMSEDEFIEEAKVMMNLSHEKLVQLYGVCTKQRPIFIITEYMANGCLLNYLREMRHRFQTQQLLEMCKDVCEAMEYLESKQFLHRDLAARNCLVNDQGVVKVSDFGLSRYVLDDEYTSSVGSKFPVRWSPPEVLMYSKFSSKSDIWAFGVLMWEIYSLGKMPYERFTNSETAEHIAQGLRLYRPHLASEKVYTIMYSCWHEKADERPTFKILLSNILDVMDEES
Experimental: Nonlinear regression was performed using the Solver algorithm in Excel. […] Two-step Kinact/Ki fits were extracted from the progress curve analysis of all compounds against BTK, enabling independent Kinact and Ki determinations.

Row | Compound | remaining binding at 1 µM (TYRO3; @1000nM, read-out: %Control) [%] | remaining binding at 1 µM (TYRO3; read-out: %Control @1000nM) [%] | remaining binding at 1 µM (FLT3(R834Q); @1000nM, read-out: %Control) [%] | remaining binding at 1 µM (FLT3(R834Q); read-out: %Control @1000nM) [%] | remaining binding at 1 µM (CSF1R; @1000nM, read-out: %Control) [%] | remaining binding at 1 µM (CSF1R; read-out: %Control @1000nM) [%] | difference in %Control versus compound Ib at 1 µM (FLT3(R834Q); @1000nM) [%] | remaining binding at 1 µM (RET(V804L); @1000nM, read-out: %Control) [%] | remaining binding at 1 µM (RET(V804L); read-out: %Control @1000nM) [%] | IC50 (ITK, full length) [nM] | difference in %Control versus compound Ib at 1 µM (CSF1R; @1000nM) [%] | difference in %Control from compound Ib at 1 µM ([1]; @1000nM) [%] | remaining binding at 1 µM ([1]; @1000nM, read-out: %Control) [%] | remaining binding at 1 µM ([1]; read-out: %Control @1000nM) [%] | Ki (BTK, full length (2–659); BTK) [nM] | kinact (BTK, full length (2–659); BTK) [s⁻¹] | kinact/KI (BTK, full length (2–659); BTK, read-out: Kinact/Ki) [M⁻¹ s⁻¹] | kinact/KI (BTK, full length (2–659)) [M⁻¹ s⁻¹] | fold reduction of Kinact/Ki (potency) relative to 1g (BTK, full length (2–659); BTK) [fold]
1 | C=CC(=O)N1CCC[C@@H](n2nc(-c3ccc(Oc4ccccc4)cc3)c3c(N)ncnc32)C1 [Compound 1g, Ibrutinib, reference compound] | 34 | 34 | 61 | 61 | 80 | 80 | – | – | – | – | – | – | – | – | – | – | – | – | –
2 | Cc1cnc(S(C)(=O)=O)nc1N1CCCC(n2nc(-c3ccc(Oc4ccccc4)cc3)c3c(N)ncnc32)C1 (centres unmarked) [Compound 8a, 1-(1-(5-Methyl-2-(methylsulfonyl)pyrimidin-4-yl)piperidin-3-yl)-3-(4-phenoxyphenyl)-1H-pyrazolo[3,4-d]pyrimidin-4-amine] | 40 | 40 | 70 | 70 | 92 | 92 | 9 | 89 | 89 | > 1000 | 12 | 0 | 65 | 65 | 9.08 ± 0.41 | 0.00659 ± 0.00019 | 726000 | – | –
3 | COC(=O)c1cnc(S(C)(=O)=O)nc1N1CCCC(n2nc(-c3ccc(Oc4ccccc4)cc3)c3c(N)ncnc32)C1 (centres unmarked) [Compound 8b, Methyl 4-(3-(4-Amino-3-(4-phenoxyphenyl)-1H-pyrazolo[3,4-d]pyrimidin-1-yl)piperidin-1-yl)-2-(methylsulfonyl)pyrimidine-5-carboxylate] | 33 | 33 | 83 | 83 | 92 | 92 | 22 | 90 | 90 | > 1000 | 12 | 1 | 66 | 66 | 24.2 ± 0.95 | 0.00792 ± 0.00019 | 328000 | – | –
4 | CCOC(=O)c1cnc(S(C)(=O)=O)nc1N1CCC[C@@H](n2nc(-c3ccc(Oc4ccccc4)cc3)c3c(N)ncnc32)C1 [Compound 8c, Ethyl (R)-4-(3-(4-Amino-3-(4-phenoxyphenyl)-1H-pyrazolo[3,4-d]pyrimidin-1-yl)piperidin-1-yl)-2-(methylsulfonyl)pyrimidine-5-carboxylate] | 40 | 40 | 99 | 99 | 96 | 96 | 38 | 100 | 100 | – | 16 | 12 | 77 | 77 | – | – | – | – | –
5 | CNC(=O)c1cnc(S(C)(=O)=O)nc1N1CCCC(n2nc(-c3ccc(Oc4ccccc4)cc3)c3c(N)ncnc32)C1 (centres unmarked) [Compound 8d, 4-(3-(4-Amino-3-(4-phenoxyphenyl)-1H-pyrazolo[3,4-d]pyrimidin-1-yl)piperidin-1-yl)-N-methyl-2-(methylsulfonyl)pyrimidine-5-carboxamide] | 32 | 32 | 90 | 90 | 99 | 99 | 29 | 93 | 93 | > 1000 | 19 | 9 | 74 | 74 | 5.07 ± 0.36 | 0.0126 ± 0.00067 | – | 2.49e+06 | 3
